This is an account of results in patent publication USRE31731E, “Herbicidal 4-trifluoromethyl-4-nitrodiphenyl ethers” (priority 1978, dated 1984).

Holding throughout (assay type): in vivo
The subject of assay [1] is Dicots. As to the kind of experiment: Herbicidal activity, preemergence, dicot weeds (Table II). Particulars: pre-emergence, 336 h, about 2 weeks, read-out: % control (percent of plants killed); for pest or weed control at 2241.7 g/ha: 2 lb./A.; for pest or weed control at 4483.4 g/ha: 4 lb./A. As for the experimental part:
(§1) Using the procedure described below, diphenyl ethers were evaluated for control of the following weeds: […]
(§2) bindweed (Convolvulus arvensis) curly dock (Remex crispus) velvetleaf (Abutilon theophrasti) wild mustard (Brassica haber)
(§3) At 2 and 4 pounds per acre: […]
(§4) cocklebur (Xanthium pensylvanicum)
(§5) **coffeeweed (Sesbania macrocarpa)
(§6) *curly dock (Rumex crispus)
(§7) *lambsquarters (Chenopodium album) morningglory (Ipomoea purpurea)
(§8) *pigweed (Amaranthus retroflexus)
(§9) **ragweed (Ambrosia artemisiifolia)
(§10) *smartweed (Polygonum pensylvanicum)
(§11) **tomato (Lycopersicon esculentum)
(§12) *wild carrot (Daucus carota)
(§13) *wild mustard (Brassica haber)
(§14) The following test procedure is employed. Seeds of selected crops and weeds are planted in soil in flats. For preemergence tests, the flats are treated with the test compound immediately after the planting. For postemergence tests, the seeds are allowed to germinate, and after 2 weeks the flats are treated with the test compound. The compound to be evaluated is dissolved in acetone, diluted with water, and sprayed over the flats using a carrier volume equivalent to 50 gallons per acre at the rate of application (pounds per acre, lb/A.) specified in the tables. About 2 weeks after the application of the test compound, the state of growth of the plants is observed and the phytotoxic effect of the compound is evaluated. Table II gives the average percent control achieved by the test compounds in terms of the percent of the plants which are killed by the compounds.

Assay [2] has as its system Monocots. In words: Herbicidal activity, preemergence, monocot weeds (Table II). Particulars: pre-emergence, 336 h, about 2 weeks, read-out: % control (percent of plants killed); for pest or weed control at 2241.7 g/ha: 2 lb./A.; for pest or weed control at 4483.4 g/ha: 4 lb./A. Here is the method: as §1
(§15) barnyardgrass (Echinochloa crusgalli) crabgrass (Digitaria spp.) nutsedge (Cyperus esculentus)
(§16) At 2 and 4 pounds per acre:
(§17) **Bermudagrass (Cynodon dactylon)
(§18) *downy brome (Bromus tectorum) foxtail (Setaria faberii)
(§19) Johnsongrass (Sorghum halepense) […]
(§20) quackgrass (Agropyron repens)
(§21) *ryegrass (Lolium perenne)
(§22) *yellow millet (Panicum miliaceum)
as §14

Assay [3] relates to Monocots. As to the kind of experiment: Herbicidal activity, postemergence, monocot weeds (Table II). Particulars: post-emergence, 336 h, about 2 weeks, read-out: % control (percent of plants killed); for pest or weed control at 2241.7 g/ha: 2 lb./A.; for pest or weed control at 4483.4 g/ha: 4 lb./A. As for the experimental part: as §1, §15, §16, §17, §18, §19, §20, §21, §22, §14

Assay [4] has as its system Dicots. In words: Herbicidal activity, postemergence, dicot weeds (Table II). The settings on record: post-emergence, 336 h, about 2 weeks, read-out: % control (percent of plants killed); for pest or weed control at 2241.7 g/ha: 2 lb./A.; for pest or weed control at 4483.4 g/ha: 4 lb./A. As for the experimental part:
as §1, §2, §3, §4, §5, §6, §7, §8, §9, §10, §11, §12, §13, §14

The structures appear in SMILES notation.

Turning to `O=C(O)COc1cc(Oc2ccc(C(F)(F)F)cc2Cl)ccc1[N+](=O)[O-]` [Example 23], the pest or weed control at 2241.7 g/ha came out at 87% in assay [1], 55% in assay [2], 71% in assay [3] and 100% in assay [4]. Also, the pest or weed control at 4483.4 g/ha in assay [1] was 64%; in assay [2], 90%; in assay [3] it was 82%; in assay [4], 100%.

Regarding `CCOC(=O)COc1cc(Oc2ccc(C(F)(F)F)cc2Cl)ccc1[N+](=O)[O-]` [Example 24], the pest or weed control at 2241.7 g/ha was found to be 97% in assay [1], 62% in assay [2], 84% in assay [3] and 100% in assay [4]. For the same molecule, the pest or weed control at 4483.4 g/ha was 68% in assay [1], 91% in assay [2], 86% in assay [3] and 99% in assay [4].

Turning to `CC(Oc1cc(Oc2ccc(C(F)(F)F)cc2Cl)ccc1[N+](=O)[O-])C(=O)O` (stereo not drawn) [Example 25, 2-Chloro-α,α,α-trifluoro-p-tolyl-3-(1-carboxyethoxy)-4-nitrophenyl ether], the pest or weed control at 2241.7 g/ha came out at 93% in assay [1], 40% in assay [2], 88% in assay [3] and 100% in assay [4]. The pest or weed control at 4483.4 g/ha in assay [1] was found to be 88%; in assay [2], 87%; in assay [3], 97%; in assay [4], 100%.

For `Nc1cc(Oc2ccc(C(F)(F)F)cc2Cl)ccc1[N+](=O)[O-]` [Example 27], the pest or weed control at 2241.7 g/ha was found to be 90% in assay [1], 74% in assay [2], 99% in assay [3] and 100% in assay [4]. Moreover, the pest or weed control at 4483.4 g/ha was 98% in assay [1], 76% in assay [2], 82% in assay [3] and 100% in assay [4].

As for `O=[N+]([O-])c1ccc(Oc2ccc(C(F)(F)F)cc2Cl)cc1N1CCOCC1` [Example 28, 2-chloro-α,α,α-trifluoro-p-tolyl-3-morpholino-4-nitrophenyl ether], the pest or weed control at 2241.7 g/ha was found to be 79% in assay [1], 79% in assay [2], 73% in assay [3] and 100% in assay [4]. Further, the pest or weed control at 4483.4 g/ha in assay [1] was found to be 95%; in assay [2] it was 74%; in assay [3], 73%; in assay [4] it was 99%.

Consider `C#CCCOc1cc(Oc2ccc(C(F)(F)F)cc2Cl)ccc1[N+](=O)[O-]` [Example 29], for which the pest or weed control at 2241.7 g/ha came to 84% in assay [1], 66% in assay [2], 97% in assay [3] and 100% in assay [4]. Further, the pest or weed control at 4483.4 g/ha was 73% in assay [1], 74% in assay [2], 79% in assay [3] and 100% in assay [4].

On to `CC(=O)CCOc1cc(Oc2ccc(C(F)(F)F)cc2Cl)ccc1[N+](=O)[O-]` [Example 31], for which the pest or weed control at 2241.7 g/ha in assay [1] was 69%; in assay [2], 68%; in assay [3], 68%; in assay [4], 100%. Also, the pest or weed control at 4483.4 g/ha in assay [1] is 99%; in assay [2], 74%; in assay [3] it was 61%; in assay [4], 100%.

On to `CC(=O)C(C)Oc1cc(Oc2ccc(C(F)(F)F)cc2Cl)ccc1[N+](=O)[O-]` (centres unmarked) [Example 32], for which the pest or weed control at 2241.7 g/ha in assay [1] turned out to be 81%; in assay [2] it was 81%; in assay [3] it was 100%; in assay [4] it was 100%. For the same molecule, the pest or weed control at 4483.4 g/ha in assay [1] was found to be 100%; in assay [2] it was 86%; in assay [3], 86%; in assay [4] it was 100%.

With `CNC(=O)Oc1cc(Oc2ccc(C(F)(F)F)cc2Cl)ccc1[N+](=O)[O-]` [Example 33], the pest or weed control at 2241.7 g/ha in assay [1] was determined as 74%; in assay [2] it was 79%; in assay [3], 65%; in assay [4], 100%. For the same molecule, the pest or weed control at 4483.4 g/ha turned out to be 99% in assay [1], 53% in assay [2], 32% in assay [3] and 98% in assay [4].

Regarding `O=C(CCl)Nc1cc(Oc2ccc(C(F)(F)F)cc2Cl)ccc1[N+](=O)[O-]` [Example 35, 2-chloro-α,α,α-trifluoro-p-tolyl-3-chloroacetamido-4-nitrophenyl ether], the pest or weed control at 2241.7 g/ha in assay [1] was 72%; in assay [2] it was 60%; in assay [3], 63%; in assay [4], 80%. Besides, the pest or weed control at 4483.4 g/ha in assay [1] was 40%; in assay [2], 40%; in assay [3], 45%; in assay [4], 98%.

In the case of `O=[N+]([O-])c1ccc(Oc2ccc(C(F)(F)F)cc2Cl)cc1OCC1CO1` (centres unmarked) [Example 38], the pest or weed control at 2241.7 g/ha in assay [1] was 68%; in assay [2], 62%; in assay [3], 51%; in assay [4], 58%. Moreover, the pest or weed control at 4483.4 g/ha in assay [1] is 86%; in assay [2], 47%; in assay [3], 43%; in assay [4], 98%.

Turning to `O=[N+]([O-])c1ccc(Oc2ccc(C(F)(F)F)cc2Cl)cc1OCC(O)CO` (stereo not drawn) [Example 39, 2-chloro-α,α,α-trifluoro-p-tolyl-3-(2,3-dihydroxypropoxy)-4-nitrophenyl ether], the pest or weed control at 2241.7 g/ha in assay [1] is 80%; in assay [2], 77%; in assay [3] it was 61%; in assay [4] it was 100%. Besides, the pest or weed control at 4483.4 g/ha in assay [1] is 99%; in assay [2] it was 65%; in assay [3], 64%; in assay [4], 98%.

In the case of `CCCN(CCC)c1cc(Oc2ccc(C(F)(F)F)cc2Cl)ccc1[N+](=O)[O-]` [Example 41], the pest or weed control at 2241.7 g/ha worked out at 62% in assay [1], 84% in assay [2], 56% in assay [3] and 94% in assay [4]. Besides, the pest or weed control at 4483.4 g/ha was 96% in assay [1], 60% in assay [2], 71% in assay [3] and 95% in assay [4].

`CS(=O)(=O)CCOc1cc(Oc2ccc(C(F)(F)F)cc2Cl)ccc1[N+](=O)[O-]` [Example 42]: the pest or weed control at 2241.7 g/ha in assay [1] was 60%; in assay [2], 83%; in assay [3], 63%; in assay [4] it was 88%. For the same molecule, the pest or weed control at 4483.4 g/ha in assay [1] came to 80%; in assay [2], 62%; in assay [3] it was 38%; in assay [4], 98%.

Turning to `CN(CCO)c1cc(Oc2ccc(C(F)(F)F)cc2Cl)ccc1[N+](=O)[O-]` [Example 43], the pest or weed control at 2241.7 g/ha turned out to be 100% in assay [1], 99% in assay [2], 61% in assay [3] and 80% in assay [4]. Besides, the pest or weed control at 4483.4 g/ha in assay [1] amounted to 48%; in assay [2], 0%; in assay [3], 2%; in assay [4], 47%.

Regarding `CNC(=O)Nc1cc(Oc2ccc(C(F)(F)F)cc2Cl)ccc1[N+](=O)[O-]` [Example 44], the pest or weed control at 2241.7 g/ha turned out to be 17% in assay [1], 0% in assay [2], 7% in assay [3] and 10% in assay [4]. Also, the pest or weed control at 4483.4 g/ha in assay [1] stood at 96%; in assay [2] it was 66%; in assay [3], 60%; in assay [4] it was 98%.
